Usually IC50 stands for the concentration that gives 50% inhibition. By pKa is commonly meant the negative logarithm of the acid dissociation constant. For orientation: EC50 means the concentration at which the effect is half-maximal.

Data set [1] is described as follows: pKa analysis by capillary electrophoresis (pKa PRO Analyzer, co-solvent method). The format is physicochemical. The note with it: co-solvent method (60% to 30% methanol buffers); for 1st pKa: pH range 1.7-11.2; for pKa: methanol/aqueous co-solvent buffers. As for the experimental part:
The 10 mM DMSO stock solutions of test articles (TAs) were diluted 100-fold with either 2 mM HCl or 2 mM NaOH and methanol. The final concentration of methanol was 60%, TA concentration was 100 μM, and DMSO concentration was 1%. The TAs were transferred into 24 consecutive wells of a 96-well plate for analysis using the co-solvent method. […] All data was obtained using a pKa. PRO Analyzer (AATI, Ankey, IA) by performing four consecutive CE runs from 60% to 30% co-solvent buffers. Norfloxacin was used as a daily performance-indicating standard. The pKa values were predicted by using pKa. Estimator® software (AATI, Ankey, IA) by relating molecular weight of the TA to its mobility.

The target in the next data set is human KHK-C (Homo sapiens (Human), UniProt P50053). Nature of the data set: KHK Biochemical Assay (IC50), ADP-Glo, KHK-C. The conditions noted are these: average of at least two separate assays. An outline of the steps:
(§1)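 ADP-Glo luminescence measured ADP made over a 4 h room-temperature reaction of ATP plus fructose, started after 30 min compound–enzyme pre-incubation. Buffer: 50 mM Hepes pH 7.4, 140 mM KCl, 5 mM MgCl2, 0.01% Triton-X. Enzyme was His-tagged, BL21 (DE3)-expressed, Ni-NTA-purified; compounds in 1:3 DMSO dilution series.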

In another data set the target is human KHK-A (Homo sapiens (Human), UniProt P50053). The data set can be described thus: KHK Biochemical Assay (IC50), ADP-Glo, KHK-A. The note with it: average of at least two separate assays. An outline of the steps:
as §1
Background: ADP-Glo turns the ADP formed in a reaction into a luminescent signal.

Another data set concerns HepG2 cells. The data set can be described thus: F1P Cell-Based Assay (EC50), 13C6-fructose-1-phosphate in HepG2 cells (cell culture medium or 50% human plasma). The conditions noted are these: Homo sapiens.
The target of a further data set is human OATP1B1 (Homo sapiens (Human), UniProt Q9Y6L6). Nature of the data set: In Vitro Inhibition Assessment with Human OATP1B1 Transporter. The format is in vitro ADME. The conditions noted are these: HEK293-OATP1B1 cells, probe substrate pravastatin. The essentials:
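HEK293-OATP1B1 and mock cells were preincubated 15 min with compound in HBSS. They were then coincubated 5 min with compound plus pravastatin (0.4% DMSO final), and intracellular substrate was quantified by LC-MS/MS. Mock-corrected uptake relative to solvent gave percentage activity, from which IC50 was fitted.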

In data set [2] the target is KHK-C expressed in NRK-52E cells (Homo sapiens (Human), UniProt P50053). Nature of the data set: KHK-C Cell-based Assay (EC50), NRK CTG, fructose-mediated ATP-depletion.
KHK-C expressed in NRK-52E cells, sequence (P50053 whole entry): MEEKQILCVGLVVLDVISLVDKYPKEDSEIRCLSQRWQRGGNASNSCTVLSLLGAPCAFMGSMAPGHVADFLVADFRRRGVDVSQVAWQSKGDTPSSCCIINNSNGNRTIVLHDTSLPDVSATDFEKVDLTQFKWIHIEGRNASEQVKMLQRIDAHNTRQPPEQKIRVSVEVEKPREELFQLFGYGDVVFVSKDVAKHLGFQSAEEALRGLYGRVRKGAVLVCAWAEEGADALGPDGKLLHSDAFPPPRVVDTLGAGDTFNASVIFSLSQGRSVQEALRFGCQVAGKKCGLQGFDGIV
Where [3] appears, read: pH range 1.7-11.2, read-out: 1st pKa.
Where [4] appears, read: pH range 1.7-11.2, read-out: 2nd pKa.
The mark [5] stands for this setting: HepG2, HepG2 cells, 50% human plasma, read-out: F1P 50% HP EC50.
[6] abbreviates: HepG2, read-out: F1P 10% FBS EC50, HepG2 cells, cell culture medium (10% FBS).

The structures appear in SMILES notation. Like-named read-outs stand apart in the source and are kept apart here.

human KHK-A, sequence (P50053 other isoform, or with tags, fused parts or gaps): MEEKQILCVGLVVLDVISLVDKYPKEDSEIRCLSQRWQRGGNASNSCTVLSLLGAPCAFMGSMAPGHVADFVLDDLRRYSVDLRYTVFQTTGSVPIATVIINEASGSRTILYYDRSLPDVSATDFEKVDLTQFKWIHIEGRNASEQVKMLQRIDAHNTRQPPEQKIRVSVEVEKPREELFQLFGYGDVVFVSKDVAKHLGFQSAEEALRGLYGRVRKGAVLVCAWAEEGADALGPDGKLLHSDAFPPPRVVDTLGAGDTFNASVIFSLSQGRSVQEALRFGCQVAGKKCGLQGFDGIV
human KHK-C, sequence (P50053 whole entry): as the sequence (P50053 whole entry) above
human OATP1B1, sequence (Q9Y6L6 whole entry): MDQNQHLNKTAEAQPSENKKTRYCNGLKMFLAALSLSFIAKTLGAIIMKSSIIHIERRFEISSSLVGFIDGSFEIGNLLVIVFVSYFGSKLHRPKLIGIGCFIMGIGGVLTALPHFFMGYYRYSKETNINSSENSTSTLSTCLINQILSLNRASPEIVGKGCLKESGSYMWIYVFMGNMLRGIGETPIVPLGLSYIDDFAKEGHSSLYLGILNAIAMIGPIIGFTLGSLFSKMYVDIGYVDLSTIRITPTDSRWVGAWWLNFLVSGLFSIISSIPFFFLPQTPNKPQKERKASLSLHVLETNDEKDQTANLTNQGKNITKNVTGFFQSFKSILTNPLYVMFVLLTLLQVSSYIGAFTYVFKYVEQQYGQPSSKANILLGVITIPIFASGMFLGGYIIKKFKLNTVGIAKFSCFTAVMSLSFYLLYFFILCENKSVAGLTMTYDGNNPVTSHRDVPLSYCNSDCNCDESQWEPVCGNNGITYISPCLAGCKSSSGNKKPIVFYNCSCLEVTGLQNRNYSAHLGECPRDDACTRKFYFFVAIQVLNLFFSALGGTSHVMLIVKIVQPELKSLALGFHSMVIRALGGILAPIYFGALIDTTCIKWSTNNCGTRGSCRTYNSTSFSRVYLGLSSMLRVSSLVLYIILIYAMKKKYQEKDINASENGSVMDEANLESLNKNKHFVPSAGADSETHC

As to `C[C@H]1[C@H](O)CN1c1nc(-c2ccc([C@@]3(N)CCS(=O)(=O)C3)cc2)c2c(n1)C(F)(F)CC2` (single isomer, unassigned) [Example 794], the “1st pKa” value in data set [1] stood at 4.9. For the same compound, the half-maximal inhibitory concentration (IC50) against human KHK-C (ADP-Glo) came to 4.4 nM.
In the case of `C[C@H]1CCN1c1nc2c(c(-c3cnsc3)n1)CCC2` [Example 14, (S)-4-(2-(2-methylazetidin-1-yl)-6,7-dihydro-5H-cyclopenta[d]pyrimidin-4-yl)isothiazole], in data set [1] (setting [3]), the pKa was determined as 4.28. Moreover, the half-maximal inhibitory concentration (IC50) at human KHK-C (ADP-Glo) was 104 nM; at human KHK-A (ADP-Glo), 121 nM.
With `C[C@H]1CCN1c1nc2c(c(-c3cccnc3)n1)CCC2` [Example 15, (S)-2-(2-methylazetidin-1-yl)-4-(pyridin-3-yl)-6,7-dihydro-5H-cyclopenta[d]pyrimidine], the pKa in data set [1] (setting [3]) is 3.57; in data set [1] (setting [4]), 5.44. Also, the results for the IC50 at human KHK-C (ADP-Glo) and on human KHK-A (ADP-Glo) were 165 nM and 148 nM, respectively.
In the case of `C[C@H]1CCN1c1nc2c(c(-c3cncnc3)n1)CCC2` [Example 16, (S)-2-(2-methylazetidin-1-yl)-4-(pyrimidin-5-yl)-6,7-dihydro-5H-cyclopenta[d]pyrimidine], the pKa in data set [1] (setting [3]) worked out at 3.77. Also, the IC50 against human KHK-C (ADP-Glo) was 667 nM; against human KHK-A (ADP-Glo), 783 nM.
With `C[C@H]1CCN1c1nc2c(c(-c3ccn(C)n3)n1)CCC2` [Example 17, (S)-4-(1-methyl-1H-pyrazol-3-yl)-2-(2-methylazetidin-1-yl)-6,7-dihydro-5H-cyclopenta[d]pyrimidine], in data set [1] (setting [3]), the pKa was determined as 4.69. Also, the figures for the 50% inhibitory concentration (IC50) on human KHK-C (ADP-Glo) and at human KHK-A (ADP-Glo) were 193 nM and 252 nM, respectively.
On the same counts, the results for `C[C@H]1CCN1c1nc2c(c(-c3cn[nH]c3)n1)CCC2` [Example 19, (S)-2-(2-methylazetidin-1-yl)-4-(1H-pyrazol-4-yl)-6,7-dihydro-5H-cyclopenta[d]pyrimidine] are 4.88, 33.2 nM and 38.6 nM.
On the same counts, the results for `C[C@H]1CCN1c1nc2c(c(-c3ccnn3C)n1)CCC2` [Example 20, (S)-4-(1-methyl-1H-pyrazol-5-yl)-2-(2-methylazetidin-1-yl)-6,7-dihydro-5H-cyclopenta[d]pyrimidine] are 4, 156 nM and 146 nM.
Consider `C[C@H]1CCN1c1nc2c(c(-c3ccccn3)n1)CCC2` [Example 21, (S)-2-(2-methylazetidin-1-yl)-4-(pyridin-2-yl)-6,7-dihydro-5H-cyclopenta[d]pyrimidine], for which the pKa in data set [1] (setting [3]) was found to be 1.73; in data set [1] (setting [4]), 4.48. The IC50 turned out to be 292 nM against human KHK-C (ADP-Glo) and 367 nM against human KHK-A (ADP-Glo).
For the compound `C[C@H]1[C@H](O)CN1c1nc(-c2cccc(CNS(C)(=O)=O)c2)c2c(n1)C(F)(F)CC2` [Example 324, N-(3-(7,7-difluoro-2-((2S,3R)-3-hydroxy-2-methylazetidin-1-yl)-6,7-dihydro-5H-cyclopenta[d]pyrimidin-4-yl)benzyl)methanesulfonamide], the values for the half-inhibitory concentration (IC50) at human KHK-C (ADP-Glo), against human KHK-A (ADP-Glo) and against human OATP1B1 were 8.3 nM, 6.6 nM and 5800 nM, respectively. The EC50 in the data set on HepG2 cells (setting [5]) came out at 59.9 nM; in the data set on HepG2 cells (setting [6]) it was 19 nM; in data set [2], 72.3 nM.
For `C[C@H]1[C@H](O)CN1c1nc(-c2cc(F)c3c(c2)OCCNC3=O)c2c(n1)C(F)(F)CC2` [Example 746, 8-[7,7-difluoro-2-[(2S,3R)-3-hydroxy-2-methyl-azetidin-1-yl]-5,6-dihydrocyclopenta[d]pyrimidin-4-yl]-6-fluoro-3,4-dihydro-2H-1,4-benzoxazepin-5-one], the IC50 against human KHK-C came out at 7.4 nM; on human KHK-A it was 46.7 nM; at human OATP1B1, 1070 nM. Further, the EC50 with HepG2 cells (setting [5]) was 76.8 nM; with HepG2 cells (setting [6]), 49.2 nM; in data set [2], 108 nM.
As for `C[C@H]1[C@H](F)CN1c1nc(-c2ccc(C3(N)CS(=N)(=O)C3)cc2)c2c(n1)C(F)(F)CC2` (stereo partly drawn) [Example 796], the “1st pKa” value in data set [1] came out at 4.8. For the same compound, at human KHK-C (ADP-Glo), the midpoint of inhibition, the IC50, lay at 1.8 nM.

Values taken from patent publication US12410160B2 (Gilead Sciences, Inc., priority 2021, dated 2025).
